Source: patent US20180338980A1, “AROMATIC SULFONAMIDE DERIVATIVES” (BAYER PHARMA AKTIENGESELLSCHAFT, priority 2015, published 2018)

Biological target: T1, P2X4 (Homo sapiens, UniProt Q99571)
T1 sequence (Q99571 1-388): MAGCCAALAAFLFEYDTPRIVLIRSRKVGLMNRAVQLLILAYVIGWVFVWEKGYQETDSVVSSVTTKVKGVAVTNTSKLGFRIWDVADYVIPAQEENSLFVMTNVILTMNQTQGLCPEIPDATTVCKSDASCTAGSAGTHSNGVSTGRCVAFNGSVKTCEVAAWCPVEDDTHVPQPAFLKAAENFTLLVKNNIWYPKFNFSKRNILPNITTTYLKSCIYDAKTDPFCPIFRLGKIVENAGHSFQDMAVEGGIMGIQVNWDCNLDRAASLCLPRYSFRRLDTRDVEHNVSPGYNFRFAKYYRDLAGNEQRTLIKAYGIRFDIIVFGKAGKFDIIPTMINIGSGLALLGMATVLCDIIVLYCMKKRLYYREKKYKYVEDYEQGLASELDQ
Assay: Assay B: human P2X4 receptor cell line, mitochondrial photina luminescence (agonist Bz-ATP at EC50)
Format: cell-based
Parameters: host or cells: HEK 293 (recombinant, constitutively expressing; with mitochondrial photina in Assay B)
Conditions: HEK human P2X4 cell line, photina luminescence, agonist Bz-ATP at EC50, average; for Emax: read-out: human P2X4 Assay B avg Efficacy
Method: The identification of agonists and antagonists of the P2X4 receptor from humans and […] also the quantification of the activity of the compounds of the invention was performed by use of recombinant cell lines. […] The test cell lines constitutively express the mouse or human P2X4 receptors. Stimulation of the receptors with an agonist leads to a conformational change of P2X4 and influx of extracellular calcium ions through the ion channel. The cytoplasmatic calcium transient is detected via the calcium sensitive dye Fluo8 for the mouse P2×4 cell line or in case of the human P2×4 cell line a stably expressed calcium-sensitive photoprotein, mitochondrial photina, which, after reconstitution with the cofactor coelenterazine, emits light in dependence of calcium binding [Bovolenta S, Foti M, Lohmer S, Corazza S., J Biomol Screen. […] The strength of Fluo8 fluorescence signal or photina luminescence signal corresponds to the level of receptor activation. An inhibitor would decrease the signal depending on its potency and concentration.
The resulting light signal is measured immediately in the luminometer.

Row | Compound | IC50 [nM] | Emax [%]
1 | Cc1ccc(C#N)cc1Oc1ccc(NC(=O)Cc2ccccc2Cl)cc1S(N)(=O)=O [Example 045, 2-(2-Chlorophenyl)-N-[4-(5-cyano-2-methylphenoxy)-3-sulfamoylphenyl]acetamide] | 176 | 71
2 | CS(=O)(=O)c1ccc(COc2ccc(NC(=O)Cc3ccccc3Cl)cc2S(N)(=O)=O)cc1 [Example 147, 2-(2-Chlorophenyl)-N-(4-{[4-(methylsulfonyl)benzyl]oxy}-3-sulfamoylphenyl)acetamide] | 1270 | 69
3 | NS(=O)(=O)c1cc(NC(=O)Cc2ccccc2OCCO)ccc1Oc1cccc(Cl)c1 [Example 213, N-[4-(3-Chlorophenoxy)-3-sulfamoylphenyl]-2-[2-(2-hydroxyethoxy)phenyl]acetamide] | 818 | 61
4 | NS(=O)(=O)c1cc(NC(=O)Cc2cc(Cl)ccc2Cl)ccc1Oc1cccc(Cl)c1 [Example 114, N-[4-(3-Chlorophenoxy)-3-sulfamoylphenyl]-2-(2,5-dichlorophenyl)acetamide] | 305 | 64
5 | NS(=O)(=O)c1cc(NC(=O)Cc2ccccc2Cl)ccc1OC1CCC1 [Example 205, 2-(2-Chlorophenyl)-N-[4-(cyclobutyloxy)-3-sulfamoylphenyl]acetamide] | 396 | 74
6 | Cc1ccccc1CC(=O)Nc1cc(F)c(Oc2cccc(Cl)c2)c(S(N)(=O)=O)c1 [Example 171, N-[4-(3-Chlorophenoxy)-3-fluoro-5-sulfamoylphenyl]-2-(2-methylphenyl)acetamide] | 4910 | 65
7 | NS(=O)(=O)c1cc(NC(=O)Cc2ccc3c(c2)OCCO3)ccc1Oc1ccc(Cl)cc1 [Example 276, N-[4-(4-Chlorophenoxy)-3-sulfamoylphenyl]-2-(2,3-dihydro-1,4-benzodioxin-6-yl)acetamide] | > 50000 | 35
8 | NS(=O)(=O)c1cc(NC(=O)Cc2ccccc2Cl)ccc1Oc1ccnc(Cl)c1 [Example 003, 2-(2-Chlorophenyl)-N-{4-[(2-chloropyridin-4-yl)oxy]-3-sulfamoylphenyl}acetamide] | 6340 | 50
9 | NS(=O)(=O)c1cc(NC(=O)Cc2ccccc2Cl)ccc1Oc1ccc(Br)cc1 [Example 060, N-[4-(4-Bromophenoxy)-3-sulfamoylphenyl]-2-(2-chlorophenyl)acetamide] |  | 34
10 | NS(=O)(=O)c1cc(NC(=O)Cc2ccccc2SC(F)(F)F)ccc1Oc1cccc(Cl)c1 [Example 090, N-[4-(3-Chlorophenoxy)-3-sulfamoylphenyl]-2-{2-[(trifluoromethyl)sulfanyl]phenyl}acetamide] | 442 | 71
11 | CN1CCCC(Oc2ccc(NC(=O)Cc3ccccc3)cc2S(N)(=O)=O)C1 (centres unmarked) [Example 219, N-{4-[(1-Methylpiperidin-3-yl)oxy]-3-sulfamoylphenyl}-2-phenylacetamide] | > 50000 | 23
12 | NS(=O)(=O)c1cc(NC(=O)Cc2cccc(Cl)c2)ccc1Oc1cccc(Cl)c1 [Example 186, N-[4-(3-Chlorophenoxy)-3-sulfamoylphenyl]-2-(3-chlorophenyl)acetamide] | 462 | 97
13 | CCOc1ccccc1CC(=O)Nc1ccc(Oc2cccc(Cl)c2)c(S(N)(=O)=O)c1 [Example 088, N-[4-(3-Chlorophenoxy)-3-sulfamoylphenyl]-2-(2-ethoxyphenyl)acetamide] | 190 | 75
14 | COc1ccccc1Oc1ccc(NC(=O)Cc2ccccc2)cc1S(N)(=O)=O [Example 070, N-[4-(2-Methoxyphenoxy)-3-sulfamoylphenyl]-2-phenylacetamide] | 1100 | 70
15 | Cc1sc(-c2cccnc2)nc1Oc1ccc(NC(=O)Cc2ccccc2Cl)cc1S(N)(=O)=O [Example 239, 2-(2-Chlorophenyl)-N-(4-{[5-methyl-2-(pyridin-3-yl)-1,3-thiazol-4-yl]oxy}-3-sulfamoylphenyl)acetamide] | 152 | 99
